# ChEMBL document CHEMBL1201861, “Genomics of Drug Sensitity in Cancer screening data, Wellcome Trust Sanger Institute”
# Columns and labels:
# Test in all cases: cells
# DSH1 = format: functional, cell-based, Homo sapiens; details: Homo sapiens, DSH1;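 further: growth inhibition of human DSH1 cells, measured with a cell viability readout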
# Description: SANGER: Inhibition of human DSH1 cell growth in a cell viability assay.
# ES1 = format: functional, cell-based, Homo sapiens; details: Homo sapiens, ES1;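 further: growth inhibition of ES1 cells, read out with a cell viability assay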
# Description: SANGER: Inhibition of human ES1 cell growth in a cell viability assay.
# EW-1 = format: functional, cell-based, Homo sapiens; details: Homo sapiens, EW-1
# Description: SANGER: Inhibition of human EW-1 cell growth in a cell viability assay.
# EW-11 = format: functional, cell-based, Homo sapiens; details: Homo sapiens, EW-11;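 further: growth inhibition of human EW-11 cells, measured with a cell viability assay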
# Description: SANGER: Inhibition of human EW-11 cell growth in a cell viability assay.
# EOL1 = format: functional, cell-based; details: Homo sapiens;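 further: growth inhibition of EoL-1 cells, read out by a cell viability assay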
# Description: SANGER: Inhibition of human EoL-1-cell cell growth in a cell viability assay.
# HCC2218 = format: functional, cell-based; details: Homo sapiens;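 further: cell viability assay read-out, with IC50 given as the concentration that inhibits growth of the cell line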
# Description: SANGER: Inhibition of human HCC2218 cell growth in a cell viability assay.
# HOP-62 = format: functional, cell-based, Homo sapiens; details: Homo sapiens, HOP-62;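 further: cell growth inhibition determined with a viability assay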
# Description: SANGER: Inhibition of human HOP-62 cell growth in a cell viability assay.
# HuTu80 = format: functional, cell-based, Homo sapiens, HUTU-80; details: Homo sapiens, HuTu80;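 further: growth inhibition of HuTu80 human cells, determined with a cell viability readout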
# Description: SANGER: Inhibition of human HUTU-80 cell growth in a cell viability assay.
# KMOE-2 = format: functional, cell-based; details: Homo sapiens;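 further: growth inhibition of human KMOE-2 cells, read out with a cell viability assay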
# Description: SANGER: Inhibition of human KMOE-2 cell growth in a cell viability assay.
# KY821 = format: functional, cell-based; details: Homo sapiens;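 further: growth inhibition of human KY821 cells, read out by a cell viability assay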
# LB373-MEL-D = format: functional, cell-based, Homo sapiens; details: Homo sapiens, LB373-MEL-D;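 further: growth inhibition of the cell line, read out in a cell viability assay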
# Description: SANGER: Inhibition of human LB373-MEL-D cell growth in a cell viability assay.
# LS-1034 = format: functional, cell-based, Homo sapiens; details: Homo sapiens, LS-1034
# Description: SANGER: Inhibition of human LS-1034 cell growth in a cell viability assay.
# Lu-65 = format: functional, cell-based; details: Homo sapiens;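 further: growth inhibition of Lu-65 cancer cells, read out by a cell viability assay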
# Description: SANGER: Inhibition of human LU-65 cell growth in a cell viability assay.
# MFH-ino = format: functional, cell-based; details: Homo sapiens;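 further: growth inhibition of human MFH-ino cells, read out by a cell viability assay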
# Description: SANGER: Inhibition of human MFH-ino cell growth in a cell viability assay.
# ML-2 = format: functional, cell-based; details: Homo sapiens;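 further: growth inhibition of ML-2 cells, measured with a cell viability readout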
# Description: SANGER: Inhibition of human ML-2 cell growth in a cell viability assay.
# NB14 = format: functional, cell-based; details: Homo sapiens;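 further: growth inhibition of NB14 cells measured with a cell viability assay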
# Description: SANGER: Inhibition of human NB14 cell growth in a cell viability assay.
# NB17 = format: functional, cell-based; details: Homo sapiens;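 further: growth inhibition of NB17 cells, read out with a cell viability assay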
# Description: SANGER: Inhibition of human NB17 cell growth in a cell viability assay.
# NCI-H1395 = format: functional, cell-based, Homo sapiens; details: Homo sapiens, NCI-H1395;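 further: cell viability assay read-out quantifying reduced proliferation of human NCI-H1395 cells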
# Description: SANGER: Inhibition of human NCI-H1395 cell growth in a cell viability assay.
# NCI-H1770 = format: functional, cell-based; details: Homo sapiens;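 further: growth inhibition of NCI-H1770 cells determined with a viability readout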
# Description: SANGER: Inhibition of human NCI-H1770 cell growth in a cell viability assay.
# NCI-H446 = format: functional, cell-based; details: Homo sapiens;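 further: growth inhibition of NCI-H446 cells determined by a cell viability assay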
# Description: SANGER: Inhibition of human NCI-H446 cell growth in a cell viability assay.
# SNU1 = format: functional, cell-based; details: Homo sapiens;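 further: growth inhibition of human NCI-SNU-1 cells, measured with a cell viability assay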
# Description: SANGER: Inhibition of human NCI-SNU-1 cell growth in a cell viability assay.
# NEC8 = format: functional, cell-based, Homo sapiens; details: Homo sapiens, NEC8;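 further: growth inhibition of human NEC8 cells, read out by a cell viability assay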
# Description: SANGER: Inhibition of human NEC8 cell growth in a cell viability assay.
# PSN1 = format: functional, cell-based, Homo sapiens; details: Homo sapiens, PSN1;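 further: suppression of growth of human PSN1 cells, read out by a cell viability assay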
# Description: SANGER: Inhibition of human PSN1 cell growth in a cell viability assay.
# SK-MEL-1 = format: functional, cell-based; details: Homo sapiens;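 further: growth inhibition of human SK-MEL-1 cells, read out by a cell viability assay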
# Description: SANGER: Inhibition of human SK-MEL-1 cell growth in a cell viability assay.
# SW 962 = format: functional, cell-based, Homo sapiens; details: Homo sapiens, SW 962;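 further: growth inhibition of human SW962 cells, read out by a cell viability assay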
# Description: SANGER: Inhibition of human SW962 cell growth in a cell viability assay.
# TE-9 = format: functional, cell-based, Homo sapiens; details: Homo sapiens, TE-9;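 further: cell growth inhibition, measured with a cell viability readout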
# Description: SANGER: Inhibition of human TE-9 cell growth in a cell viability assay.
# CGTH-W-1 = format: functional, cell-based, Homo sapiens; details: Homo sapiens, CGTH-W-1;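 further: growth inhibition of human CGTH-W-1 cells measured by cell viability assay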
# Description: SANGER: Inhibition of human CGTH-W-1 cell growth in a cell viability assay.
# COLO-320-HSR = format: functional, cell-based; details: Homo sapiens;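 further: growth inhibition of COLO-320-HSR cells, determined with a cell viability assay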
# Description: SANGER: Inhibition of human COLO-320-HSR cell growth in a cell viability assay.
# TGBC24TKB = format: functional, cell-based, Homo sapiens; details: Homo sapiens, TGBC24TKB;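 further: growth inhibition of human TGBC24TKB cells, read out with a cell viability assay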
# Description: SANGER: Inhibition of human TGBC24TKB cell growth in a cell viability assay.
SMILES,IC50 (DSH1) [nM],IC50 (ES1) [nM],IC50 (EW-1) [nM],IC50 (EW-11) [nM],IC50 (EOL1) [nM],IC50 (HCC2218) [nM],IC50 (HOP-62) [nM],IC50 (HuTu80) [nM],IC50 (KMOE-2) [nM],IC50 (KY821) [nM],IC50 (LB373-MEL-D) [nM],IC50 (LS-1034) [nM],IC50 (Lu-65) [nM],IC50 (MFH-ino) [nM],IC50 (ML-2) [nM],IC50 (NB14) [nM],IC50 (NB17) [nM],IC50 (NCI-H1395) [nM],IC50 (NCI-H1770) [nM],IC50 (NCI-H446) [nM],further results
C=C1C(=O)O[C@@H]2C3O[C@]3(C)CC/C=C(\C)CC[C@@H]12 (some centres undefined),> 5000,> 5000,> 5000,> 5000,> 5000,> 5000,> 5000,> 5000,> 5000,> 5000,> 5000,> 5000,> 5000,> 5000,> 5000,> 5000,1720,> 5000,> 5000,> 5000,IC50 (SNU1): > 5000 nM; IC50 (NEC8): > 5000 nM; IC50 (PSN1): > 5000 nM; IC50 (SK-MEL-1): > 5000 nM; IC50 (SW 962): > 5000 nM; IC50 (TE-9): > 5000 nM; IC50 (CGTH-W-1): > 5000 nM; IC50 (COLO-320-HSR): > 5000 nM
CC1=C2C[C@H]3[C@@H](CC=C4C[C@@H](O)CC[C@@]43C)[C@@H]2CC[C@]12O[C@@H]1C[C@H](C)CN[C@H]1[C@H]2C [CYCLOPAMINE],> 16000,> 16000,> 16000,> 16000,> 16000,> 16000,> 16000,> 16000,> 16000,> 16000,> 16000,> 16000,> 16000,> 16000,> 16000,> 16000,> 16000,> 16000,> 16000,> 16000,IC50 (SNU1): > 16000 nM; IC50 (NEC8): > 16000 nM; IC50 (PSN1): > 16000 nM; IC50 (SK-MEL-1): > 16000 nM; IC50 (SW 962): > 16000 nM; IC50 (TE-9): > 16000 nM; IC50 (CGTH-W-1): > 16000 nM; IC50 (COLO-320-HSR): > 16000 nM
CS(=O)(=O)CCNCc1ccc(-c2ccc3ncnc(Nc4ccc(OCc5cccc(F)c5)c(Cl)c4)c3c2)o1 [LAPATINIB],94,> 2000,> 2000,> 2000,> 2000,53.3,> 2000,> 2000,> 2000,> 2000,> 2000,> 2000,> 2000,> 2000,> 2000,> 2000,> 2000,> 2000,> 2000,> 2000,IC50 (SNU1): > 2000 nM; IC50 (NEC8): > 2000 nM; IC50 (PSN1): > 2000 nM; IC50 (SK-MEL-1): > 2000 nM; IC50 (SW 962): > 2000 nM; IC50 (TE-9): 745 nM; IC50 (CGTH-W-1): > 2000 nM; IC50 (COLO-320-HSR): > 2000 nM
CCc1nc(N)nc(N)c1-c1ccc(Cl)cc1 [PYRIMETHAMINE],4980,123,1370,> 20000,> 20000,> 20000,5020,12100,> 20000,> 20000,> 20000,18300,11000,> 20000,11500,> 20000,> 20000,> 20000,> 20000,> 20000,IC50 (SNU1): 14700 nM; IC50 (NEC8): 1500 nM; IC50 (PSN1): 2860 nM; IC50 (SK-MEL-1): > 20000 nM; IC50 (SW 962): > 20000 nM; IC50 (TE-9): > 20000 nM; IC50 (CGTH-W-1): 17500 nM; IC50 (COLO-320-HSR): 4000 nM
O=C(/C=C/c1ccccc1)NC(NC(=S)Nc1cccc2cccnc12)C(Cl)(Cl)Cl (centres undefined) [SALUBRINAL],> 16000,> 16000,9710,> 16000,> 16000,> 16000,> 16000,11700,13100,> 16000,> 16000,> 16000,> 16000,> 16000,4620,> 16000,> 16000,> 16000,> 16000,> 16000,IC50 (SNU1): > 16000 nM; IC50 (NEC8): 6050 nM; IC50 (PSN1): > 16000 nM; IC50 (SK-MEL-1): > 16000 nM; IC50 (SW 962): > 16000 nM; IC50 (TE-9): > 16000 nM; IC50 (CGTH-W-1): > 16000 nM; IC50 (COLO-320-HSR): > 16000 nM
CN1CCN(CCOc2cc(OC3CCOCC3)c3c(Nc4c(Cl)ccc5c4OCO5)ncnc3c2)CC1 [SARACATINIB],> 2000,> 2000,> 2000,> 2000,> 2000,> 2000,1500,> 2000,> 2000,> 2000,> 2000,> 2000,> 2000,1780,> 2000,> 2000,> 2000,> 2000,> 2000,> 2000,IC50 (SNU1): > 2000 nM; IC50 (NEC8): > 2000 nM; IC50 (PSN1): > 2000 nM; IC50 (SK-MEL-1): > 2000 nM; IC50 (SW 962): > 2000 nM; IC50 (TE-9): > 2000 nM; IC50 (TGBC24TKB): > 2000 nM; IC50 (CGTH-W-1): > 2000 nM; IC50 (COLO-320-HSR): > 2000 nM
CO[C@H]1C[C@@H]2CC[C@@H](C)[C@@](O)(O2)C(=O)C(=O)N2CCCC[C@H]2C(=O)O[C@H]([C@H](C)C[C@@H]2CC[C@@H](O)[C@H](OC)C2)CC(=O)[C@H](C)/C=C(\C)[C@@H](O)[C@@H](OC)C(=O)[C@H](C)C[C@H](C)/C=C/C=C/C=C/1C [SIROLIMUS],> 100,> 100,2.17,> 100,> 100,> 100,> 100,4.42,> 100,> 100,> 100,> 100,> 100,> 100,> 100,> 100,> 100,> 100,> 100,> 100,IC50 (SNU1): > 100 nM; IC50 (NEC8): > 100 nM; IC50 (PSN1): > 100 nM; IC50 (SK-MEL-1): > 100 nM; IC50 (SW 962): > 100 nM; IC50 (TE-9): > 100 nM; IC50 (TGBC24TKB): 5.51 nM; IC50 (CGTH-W-1): > 100 nM; IC50 (COLO-320-HSR): > 100 nM
CNC(=O)c1cc(Oc2ccc(NC(=O)Nc3ccc(Cl)c(C(F)(F)F)c3)cc2)ccn1 [SORAFENIB],> 4000,> 4000,> 4000,> 4000,> 4000,3120,851,> 4000,2810,> 4000,> 4000,> 4000,> 4000,2920,> 4000,> 4000,> 4000,> 4000,> 4000,> 4000,IC50 (SNU1): 2320 nM; IC50 (NEC8): > 4000 nM; IC50 (PSN1): > 4000 nM; IC50 (SK-MEL-1): > 4000 nM; IC50 (SW 962): > 4000 nM; IC50 (TE-9): > 4000 nM; IC50 (CGTH-W-1): 250 nM; IC50 (COLO-320-HSR): > 4000 nM
CCC(=O)N1CCN(c2ccc(-n3c(=O)ccc4cnc5ccc(-c6cnc7ccccc7c6)cc5c43)cc2C(F)(F)F)CC1 [TORIN1],71.7,31,7.49,> 1200,30,472,35.6,9.29,275,220,155,364,> 1200,28.1,140,> 1200,117,> 1200,> 1200,169,IC50 (SNU1): > 1200 nM; IC50 (NEC8): 562 nM; IC50 (PSN1): 14.1 nM; IC50 (SK-MEL-1): > 1200 nM; IC50 (SW 962): 57.6 nM; IC50 (TE-9): 290 nM; IC50 (TGBC24TKB): 58 nM; IC50 (CGTH-W-1): 184 nM; IC50 (COLO-320-HSR): 131 nM
Cc1cc(Nc2cc(N3CCN(C)CC3)nc(Sc3ccc(NC(=O)C4CC4)cc3)n2)n[nH]1 [TOZASERTIB],> 2000,> 2000,1190,> 2000,335,> 2000,863,53,> 2000,> 2000,> 2000,> 2000,> 2000,9.9,903,> 2000,> 2000,> 2000,> 2000,> 2000,IC50 (SNU1): > 2000 nM; IC50 (NEC8): > 2000 nM; IC50 (PSN1): 220 nM; IC50 (SK-MEL-1): > 2000 nM; IC50 (SW 962): > 2000 nM; IC50 (TE-9): > 2000 nM; IC50 (TGBC24TKB): 864 nM; IC50 (CGTH-W-1): > 2000 nM; IC50 (COLO-320-HSR): > 2000 nM
